Legend:
Axl = biological target: T1, Axl (Homo sapiens, UniProt P30530); assay: LanthaScreen Eu kinase binding assay for Axl; details: read-out: Axl kinase binding activity (Kd)
T1 sequence (P30530 26-894): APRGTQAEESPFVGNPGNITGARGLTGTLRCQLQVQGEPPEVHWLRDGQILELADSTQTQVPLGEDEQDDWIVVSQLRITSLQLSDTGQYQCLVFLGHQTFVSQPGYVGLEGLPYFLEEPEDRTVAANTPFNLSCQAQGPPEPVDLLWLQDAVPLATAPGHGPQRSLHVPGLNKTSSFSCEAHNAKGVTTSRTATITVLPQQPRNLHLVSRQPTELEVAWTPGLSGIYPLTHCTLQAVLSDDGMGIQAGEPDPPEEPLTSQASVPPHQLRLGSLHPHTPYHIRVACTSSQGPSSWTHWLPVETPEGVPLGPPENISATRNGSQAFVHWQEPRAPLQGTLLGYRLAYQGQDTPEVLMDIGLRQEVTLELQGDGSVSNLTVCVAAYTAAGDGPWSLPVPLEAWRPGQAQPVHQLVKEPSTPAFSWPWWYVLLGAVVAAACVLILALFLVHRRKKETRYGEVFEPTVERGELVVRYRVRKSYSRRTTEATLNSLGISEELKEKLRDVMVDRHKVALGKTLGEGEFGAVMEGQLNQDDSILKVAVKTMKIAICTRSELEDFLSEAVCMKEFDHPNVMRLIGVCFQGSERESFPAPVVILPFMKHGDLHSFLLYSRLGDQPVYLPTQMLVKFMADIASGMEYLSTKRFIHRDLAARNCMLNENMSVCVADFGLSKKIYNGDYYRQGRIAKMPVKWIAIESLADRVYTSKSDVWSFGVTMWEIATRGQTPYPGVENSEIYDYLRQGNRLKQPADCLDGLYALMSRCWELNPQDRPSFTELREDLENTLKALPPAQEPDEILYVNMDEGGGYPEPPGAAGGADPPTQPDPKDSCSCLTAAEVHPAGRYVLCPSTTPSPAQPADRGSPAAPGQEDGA
Summary of the method: (§1)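 Competitive displacement of Alexa Fluor 647-labeled Tracer 236 from the kinase, with binding detected by TR-FRET with a Eu-labeled anti-GST antibody. Compounds were run as 8-step DMSO serial dilutions and incubated 1 h at room temperature. Kd was calculated relative to DMSO vehicle control wells.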

Mer = biological target: T2, Mer (Homo sapiens, UniProt Q12866); assay: LanthaScreen Eu kinase binding assay for Mer; details: read-out: Mer kinase binding activity (Kd)
T2 construct: purchased Life Technologies
T2 sequence (Q12866 21-999): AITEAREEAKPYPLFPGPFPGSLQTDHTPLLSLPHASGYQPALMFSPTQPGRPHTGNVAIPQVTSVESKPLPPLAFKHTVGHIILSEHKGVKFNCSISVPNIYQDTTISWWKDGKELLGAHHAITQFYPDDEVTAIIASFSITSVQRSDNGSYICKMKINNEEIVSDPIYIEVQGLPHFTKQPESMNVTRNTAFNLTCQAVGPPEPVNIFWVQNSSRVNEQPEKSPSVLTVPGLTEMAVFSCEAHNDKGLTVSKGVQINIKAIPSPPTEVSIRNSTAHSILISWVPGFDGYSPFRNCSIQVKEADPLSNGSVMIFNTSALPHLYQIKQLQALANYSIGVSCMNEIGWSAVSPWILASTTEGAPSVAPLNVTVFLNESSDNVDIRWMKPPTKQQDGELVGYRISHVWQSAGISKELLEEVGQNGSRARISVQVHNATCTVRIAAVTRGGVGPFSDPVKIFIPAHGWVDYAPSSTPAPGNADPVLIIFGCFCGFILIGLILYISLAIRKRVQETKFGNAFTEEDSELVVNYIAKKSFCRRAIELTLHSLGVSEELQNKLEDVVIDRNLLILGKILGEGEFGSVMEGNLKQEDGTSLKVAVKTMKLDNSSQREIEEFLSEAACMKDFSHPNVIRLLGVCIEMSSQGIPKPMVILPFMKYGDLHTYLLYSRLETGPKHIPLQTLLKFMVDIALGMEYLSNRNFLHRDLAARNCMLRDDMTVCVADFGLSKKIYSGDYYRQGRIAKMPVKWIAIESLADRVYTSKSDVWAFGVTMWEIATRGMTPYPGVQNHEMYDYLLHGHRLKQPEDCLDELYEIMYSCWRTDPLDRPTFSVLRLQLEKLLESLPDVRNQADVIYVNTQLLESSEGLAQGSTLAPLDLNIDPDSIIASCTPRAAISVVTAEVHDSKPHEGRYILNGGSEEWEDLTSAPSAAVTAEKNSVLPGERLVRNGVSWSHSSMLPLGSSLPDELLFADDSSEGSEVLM
Summary of the method: as §1

SMILES | Kd (Axl) [µM] | Kd (Mer) [µM]
COc1cc2nccc(Oc3ccc(NC(=O)c4nn(CCN)cc4OCC(F)(F)F)cc3C)c2cc1OC [Compound 82] | ≥ 0.5 | 0.1 to 0.5
COc1cc2nccc(Oc3ccc(NC(=O)c4nn(C5CC5)cc4OCC(F)(F)F)nc3)c2cc1OC [Compound 5] | < 0.1 | < 0.1
COc1cc2nccc(Oc3ccc(NC(=O)c4nn(C5CCOC5)cc4OCC(F)(F)F)cc3C)c2cc1OC (centres unmarked) [Compound 85] | < 0.1 | < 0.1
COc1cc2nccc(Oc3ccc(NC(=O)c4nn(C5CCOCC5)cc4OCC(F)(F)F)nc3)c2cc1OC [Compound 90] | < 0.1 | < 0.1
COc1cc2nccc(Oc3ccc(NC(=O)c4nn(CC(C)C)cc4OCC(F)(F)F)cc3)c2cc1OC [Compound 87] | < 0.1 | < 0.1
COc1cc2nccc(Oc3ccc(NC(=O)c4nn(CC(C)O)cc4OCC(F)(F)F)cc3F)c2cc1OC (centres unmarked) [Compound 80] | < 0.1 | < 0.1
COCCn1cc(OCC(F)(F)F)c(C(=O)Nc2ccc(Oc3ccnc4cc(OC)c(OC)cc34)c(C)c2)n1 [Compound 84] | < 0.1 | < 0.1
COc1cc2nccc(Oc3ccc(NC(=O)c4nn(CCC5CCCC5)cc4OCC(F)(F)F)nc3)c2cc1OC [Compound 93] | < 0.1 | < 0.1
COc1cc2nccc(Oc3ccc(NC(=O)c4nn(C5CCNC5)cc4OCC(F)(F)F)cc3C)c2cc1OC (centres unmarked) [Compound 81] | ≥ 0.5 | 0.1 to 0.5
COc1cc2nccc(Oc3ccc(NC(=O)c4nn(C5CCNC5)cc4OCC(F)(F)F)cc3F)c2cc1OC (centres unmarked) [Compound 78] | < 0.1 | 0.1 to 0.5
COc1cc2nccc(Oc3ccc(NC(=O)c4nn(C5CCN(C)C5)cc4OCC(F)(F)F)nc3)c2cc1OC (centres unmarked) [Compound 91] | < 0.1 | < 0.1
COc1cc2nccc(Oc3ccc(NC(=O)c4nn(C5CCN(C)C5)cc4OCC(F)(F)F)c(F)c3)c2cc1OC (centres unmarked) [Compound 94] | < 0.1 | < 0.1
COc1cc2nccc(Oc3ccc(NC(=O)c4nn(C5CCOC5)cc4OCC(F)(F)F)c(F)c3)c2cc1OC (centres unmarked) [Compound 77] | < 0.1 | < 0.1
COc1cc2nccc(Oc3ccc(NC(=O)c4nn(CC(C)O)cc4OCC(F)(F)F)cc3C)c2cc1OC (centres unmarked) [Compound 83] | < 0.1 | < 0.1
COc1cc2nccc(Oc3ccc(NC(=O)c4nn(CC(C)O)cc4OCC(F)(F)F)cc3)c2cc1OC (centres unmarked) [Compound 89] | < 0.1 | < 0.1
COc1cc2nccc(Oc3ccc(NC(=O)c4nn(CC5COC5)cc4OCC(F)(F)F)c(F)c3)c2cc1OC [Compound 95] | < 0.1 | < 0.1
COc1cc2nccc(Oc3ccc(NC(=O)c4nn(CCN)cc4OCC(F)(F)F)cc3F)c2cc1OC [Compound 79] | < 0.1 | < 0.1
COc1cc2nccc(Oc3ccc(NC(=O)c4nn(C5CCNC5)cc4OCC(F)(F)F)cc3)c2cc1OC (centres unmarked) [Compound 86] | 0.1 to 0.5 | 0.1 to 0.5
COc1cc2nccc(Oc3ccc(NC(=O)c4nn(CCN)cc4OCC(F)(F)F)cc3)c2cc1OC [Compound 88] | 0.1 to 0.5 | 0.1 to 0.5
